System: Mycosphaerella graminicola (Septoria tritici)
Test: Septoria tritici leaf spot on wheat, preventative foliar spray test
Type: in vivo
Text: Mycosphaerella graminicola (Septoria tritici)/Wheat/Preventative (Septoria tritici Leaf Spot on Wheat)
The isopyrazam is formulated as an emulsion concentrate formulation and mixed with water to form a stock solution and ultrasonically agitated in order to achieve homogeneous distribution. Spray solutions are made up from the stock solution by dilution in water/isopropanol (10% isopropanol v/v), with abscisic acid added where needed as a tank mix to the diluted stock solution, and mechanically stirred just before spraying. Foliar application is at 200 L/ha using an application device spraying with a single nozzle (Lechler type) 60 cm above the plants. Typically two-week old wheat plants cv. Riband are sprayed with the spray solution in the spray chamber of the application device. The test plants are inoculated by spraying a spore suspension on them one day after application. After an incubation period of 1 day at typically 22° C./21° C. (day/night) and 95% rh, the inoculated test plants are kept at typically 22° C./21° C. (day/night) and 70% rh in a greenhouse. Percentage efficacy is assessed by direct visual comparison to untreated check plants when an appropriate level of disease appears on the untreated checks (typically 14-19 days after application).

**Q.** With `CC1=CC(=O)CC(C)(C)[C@@]1(O)/C=C/C(C)=C\C(=O)O` [Abscisic acid] as the compound, how does the “% Disease Control” value (abscisic acid 0.0025 % w/v alone, foliar spray 200 L/ha, wheat) read?
**A.** Its value is 0%.

**Q.** And the “% Disease Control” value (abscisic acid 0.0238 % w/v alone, foliar spray 200 L/ha, wheat)?
**A.** The value was 0%.

**Q.** How did the “% Disease Control” value (isopyrazam 2.44 mg/ml alone) turn out when `CC(C)C1C2CCC1c1c(NC(=O)c3cn(C)nc3C(F)F)cccc12` (stereo not shown) [Isopyrazam] was run?
**A.** Its value is 3%.

**Q.** What about the “% Disease Control” value (isopyrazam 9.77 mg/ml alone) of the same compound?
**A.** The value was 10%.

**Q.** And the “% Disease Control” value (isopyrazam 39.06 mg/ml alone)?
**A.** Its value is 50%.

**Q.** What about the “% Disease Control” value (isopyrazam 156.25 mg/ml alone) of the same compound?
**A.** Its value is 67%.

**Q.** And the “% Disease Control” value (isopyrazam 625.00 mg/ml alone)?
**A.** Its value is 80%.
